# Results taken from ChEMBL document CHEMBL1136560, “1,4-Diazepane-2-ones as novel inhibitors of LFA-1” (Bioorg Med Chem Lett, 2003).
# Molecular target: Intercellular adhesion molecule (ICAM-1), Integrin alpha-L/beta-2 (Homo sapiens, UniProt P05107+P20701)
# Experiment: Inhibition of LFA-1/ICAM-1 interaction in ELISA
# Format: protein-complex assay
# Intercellular adhesion molecule (ICAM-1), Integrin alpha-L/beta-2, sequence (P20701 whole entry): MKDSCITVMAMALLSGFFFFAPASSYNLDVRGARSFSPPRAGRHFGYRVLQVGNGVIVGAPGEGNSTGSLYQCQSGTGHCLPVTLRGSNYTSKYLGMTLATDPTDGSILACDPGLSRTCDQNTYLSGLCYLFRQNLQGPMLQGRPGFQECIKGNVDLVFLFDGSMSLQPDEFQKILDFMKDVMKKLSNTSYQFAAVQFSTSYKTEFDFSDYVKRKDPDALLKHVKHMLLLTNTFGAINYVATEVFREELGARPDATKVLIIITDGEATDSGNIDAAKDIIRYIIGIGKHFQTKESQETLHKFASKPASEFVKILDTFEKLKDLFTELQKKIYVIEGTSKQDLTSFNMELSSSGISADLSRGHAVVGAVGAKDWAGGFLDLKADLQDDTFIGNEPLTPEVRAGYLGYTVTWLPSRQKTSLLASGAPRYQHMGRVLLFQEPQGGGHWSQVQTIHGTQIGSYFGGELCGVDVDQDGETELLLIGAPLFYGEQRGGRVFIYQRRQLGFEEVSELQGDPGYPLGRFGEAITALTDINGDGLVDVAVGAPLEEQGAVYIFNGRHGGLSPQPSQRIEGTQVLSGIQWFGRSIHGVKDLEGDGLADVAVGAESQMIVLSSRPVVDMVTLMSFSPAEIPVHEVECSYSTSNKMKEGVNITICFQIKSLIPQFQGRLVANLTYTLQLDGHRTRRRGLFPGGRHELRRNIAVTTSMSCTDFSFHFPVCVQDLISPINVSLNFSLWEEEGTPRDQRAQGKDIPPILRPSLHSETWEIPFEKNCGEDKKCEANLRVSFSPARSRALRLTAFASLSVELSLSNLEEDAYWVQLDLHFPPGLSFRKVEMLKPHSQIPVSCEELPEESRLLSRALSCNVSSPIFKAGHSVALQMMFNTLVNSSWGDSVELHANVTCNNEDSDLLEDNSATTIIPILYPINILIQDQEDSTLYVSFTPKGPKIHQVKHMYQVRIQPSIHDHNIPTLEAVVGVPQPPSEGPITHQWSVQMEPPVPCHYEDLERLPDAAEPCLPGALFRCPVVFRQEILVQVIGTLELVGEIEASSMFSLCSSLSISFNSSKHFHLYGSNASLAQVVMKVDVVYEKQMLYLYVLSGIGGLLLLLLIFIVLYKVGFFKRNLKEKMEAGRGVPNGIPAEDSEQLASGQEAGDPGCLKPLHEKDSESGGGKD
# Intercellular adhesion molecule (ICAM-1), Integrin alpha-L/beta-2, sequence (P05362 whole entry, further chain): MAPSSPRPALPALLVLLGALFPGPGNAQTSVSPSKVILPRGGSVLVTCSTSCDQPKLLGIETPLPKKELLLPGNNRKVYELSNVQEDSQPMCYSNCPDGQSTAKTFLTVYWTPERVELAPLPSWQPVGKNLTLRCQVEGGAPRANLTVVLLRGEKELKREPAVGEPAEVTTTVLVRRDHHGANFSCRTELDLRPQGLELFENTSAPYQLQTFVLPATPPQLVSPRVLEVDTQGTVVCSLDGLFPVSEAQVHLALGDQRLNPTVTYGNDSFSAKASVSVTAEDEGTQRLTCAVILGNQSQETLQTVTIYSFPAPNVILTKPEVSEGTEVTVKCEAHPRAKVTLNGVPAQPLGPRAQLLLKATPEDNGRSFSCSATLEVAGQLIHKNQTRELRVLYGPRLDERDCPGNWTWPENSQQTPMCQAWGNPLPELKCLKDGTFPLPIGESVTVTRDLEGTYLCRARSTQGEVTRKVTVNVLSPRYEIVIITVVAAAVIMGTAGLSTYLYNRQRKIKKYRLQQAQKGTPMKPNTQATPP
# Intercellular adhesion molecule (ICAM-1), Integrin alpha-L/beta-2, sequence (P05107 whole entry): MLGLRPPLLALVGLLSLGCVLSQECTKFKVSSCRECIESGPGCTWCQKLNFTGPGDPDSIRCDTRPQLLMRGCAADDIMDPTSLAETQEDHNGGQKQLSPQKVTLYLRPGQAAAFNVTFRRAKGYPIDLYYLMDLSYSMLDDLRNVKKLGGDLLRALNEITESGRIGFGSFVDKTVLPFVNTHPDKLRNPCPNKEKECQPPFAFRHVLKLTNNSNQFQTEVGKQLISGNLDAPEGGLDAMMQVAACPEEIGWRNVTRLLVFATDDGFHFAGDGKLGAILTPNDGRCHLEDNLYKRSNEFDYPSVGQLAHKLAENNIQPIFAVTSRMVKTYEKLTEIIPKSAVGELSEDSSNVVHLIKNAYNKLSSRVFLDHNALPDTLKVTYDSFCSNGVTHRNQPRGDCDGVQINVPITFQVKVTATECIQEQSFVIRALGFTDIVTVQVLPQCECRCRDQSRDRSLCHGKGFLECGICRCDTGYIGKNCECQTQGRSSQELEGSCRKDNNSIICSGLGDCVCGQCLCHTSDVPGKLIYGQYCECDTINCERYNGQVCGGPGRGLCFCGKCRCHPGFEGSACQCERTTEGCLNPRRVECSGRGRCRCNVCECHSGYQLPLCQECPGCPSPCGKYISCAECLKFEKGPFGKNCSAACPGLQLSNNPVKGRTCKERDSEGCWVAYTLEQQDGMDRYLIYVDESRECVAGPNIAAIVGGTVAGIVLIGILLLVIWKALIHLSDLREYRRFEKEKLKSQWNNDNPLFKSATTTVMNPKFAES
row,Compound,IC50
1,CC(C)C[C@H]1C(=O)N([C@@H](Cc2ccc3ccccc3c2)C(N)=O)CC[C@@H](C)N1C(=O)Cc1ccc2ccccc2c1,2000 nM
2,CC(C)C[C@H]1C(=O)N([C@@H](Cc2ccc3ccccc3c2)C(N)=O)CC[C@@H](C)N1C(=O)Cc1ccccc1,750 nM
3,COC(=O)[C@H](Cc1ccc2ccccc2c1)N1CC[C@@H](C)N(C(=O)Cc2ccc3ncccc3c2)[C@@H](CC(C)C)C1=O,2600 nM
4,CC(C)C[C@H]1C(=O)N([C@@H](Cc2ccc3ccccc3c2)C(=O)O)CC[C@@H](C)N1C(=O)Cc1ccc2ccccc2c1,> 20000 nM
5,CC(C)C[C@H]1C(=O)N([C@H](C(N)=O)c2ccc3ccccc3c2)CCC(C)N1C(=O)Cc1ccc2ccccc2c1 (some centres not stated),> 20000 nM
6,CC(C)C[C@H]1C(=O)N([C@@H](Cc2ccc3ccccc3c2)C(N)=O)CC[C@@H](C)N1C(=O)Cc1ccncc1,970 nM
7,CC(C)C[C@H]1C(=O)N([C@@H](Cc2ccc3ccccc3c2)C(N)=O)CC[C@@H](C)N1C(=O)Cc1ccc(Br)cc1,1300 nM
